Test results taken from paper PMC10451629, “Evaluation of the Effects of Heteroaryl Ethylene Molecules in Combination with Antibiotics: A Preliminary Study on Control Strains” (Antibiotics, 2023).
pIC50: −log10 of the molar value. In brackets after ≈: the same amount, converted by molar mass. Several values for one entry are separate records, joined by “and”; a condition that tells them apart may be missing. Identical values can stand only once. Like-named read-outs stand apart in the source and are kept apart here.

Columns and labels:
[1] = test system: CaCo2 colon-rectal cancer cell line; set-up: method as in in-house dataset; Log(IC50) 48h: unit not given here; details: in-house dataset previously tested by the authors' groups, ref in-house dataset, cited from earlier work; for pIC50: 48h
E. faecalis ATCC 29212 = experiment: Broth microdilution MIC; format: cell-based, Enterococcus faecalis; details: for MIC: Enterococcus faecalis
E. coli ATCC 25922 = experiment: Broth microdilution MIC; format: cell-based; details: Escherichia coli, ATCC25922, substance alone, read-out: MIC
S. aureus ATCC 12598 = experiment: Broth microdilution MIC; format: cell-based, Staphylococcus aureus; details: for MIC: Staphylococcus aureus
S. enterica ATCC 14028 = experiment: Broth microdilution MIC; format: cell-based; details: Salmonella enterica, ATCC14028, substance alone
P. aeruginosa ATCC 27853 = experiment: Broth microdilution MIC; format: cell-based, Pseudomonas aeruginosa; details: Pseudomonas aeruginosa, ATCC27853, P. aeruginosa ATCC 27853; substance alone; read-out: MIC
S. aureus ATCC 29213 = experiment: Broth microdilution MIC; format: cell-based; details: Staphylococcus aureus
A. baumannii ATCC 17978 = experiment: Broth microdilution MIC; format: cell-based; details: Acinetobacter baumannii, ATCC17978, substance alone
[2] = test system: K. pneumoniae ATCC 700603; experiment: Broth microdilution MIC; format: cell-based, Klebsiella pneumoniae; details: Klebsiella pneumoniae, ATCC700603, K. pneumoniae ATCC 700603; substance alone; read-out: MIC
[3] = test system: S. aureus ATCC BAA-1556 USA300; experiment: Broth microdilution MIC; format: cell-based, Staphylococcus aureus; details: for MIC: Staphylococcus aureus, S. aureus ATCC BAA-1556 USA300, substance alone
[4] = test system: CaCo-2 (ATCC HTB-37) colon–rectal cancer cell line; experiment: MTT cytotoxicity assay on CaCo-2 cells; format: cell-based, human; details: for pIC50: Homo sapiens, CaCo-2 cell line, MTT
Experimental: To fully assess the biological activity of the new molecules, they were tested at different concentrations on the CaCo-2 (ATCC HTB-37) colon–rectal cancer cell line. These human cancer cells were exposed to compound solutions ranging in concentration from 100 µM to 0.01 µM. As a reference compound for these assays, we used 5-Fluorouracil (5-FU), a pyrimidine analog from the antimetabolite family.
The MTT assay was also performed for the selected antibiotics to evaluate the effect of their combined treatment with PB4.
To evaluate the effect of the heteroaryl ethylene compounds and the antibiotics, an MTT ([3-(4,5-dimethylthiazol-2-yl)-2,5-diphenyltetrazolium bromide]) assay was performed as previously described. […] Both concentrations were also tested in combination with PB4 0.2 µM. All antibiotics were provided by Thermo Scientific^TM Oxoid^TM, Basingstoke, UK. Twenty-four hours after plating, the cells were treated with 20 μL of each solution. Untreated cells were used as controls. […] The IC50 values were calculated by nonlinear regression analysis using GraphPad Prism 6.0 software.

all tested strains = experiment: Broth microdilution MIC, summary over all tested strains; format: cell-based; details: all tested bacterial strains; antibiotic + PB4
S. aureus ATCC29213 = details: QSAR dataset; cited from earlier work
[5] = ATCC29212, E. faecalis ATCC 29212, substance alone, read-out: MIC
[6] = ATCC12598, S. aureus ATCC 12598, substance alone, read-out: MIC
[7] = ATCC29213, S. aureus ATCC 29213, substance alone, read-out: MIC
[8] = Caco-2, 24 h, 24 h of treatment, read-out: IC50 at 24 h
[9] = Caco-2, 48 h, 48 h of treatment, read-out: IC50 at 48 h

SMILES: C[n+]1ccccc1/C=C/c1ccc(N(c2ccccc2)c2ccccc2)cc1 [GC VII 47]
- pIC50 [1]: 6.00
- Log(IC50) 48h [1]: 0

SMILES: C[n+]1c(/C=C/c2ccc3ccccc3c2)cccc1/C=C/c1ccc2ccccc2c1 [GC-VII-39]
- MIC (E. faecalis ATCC 29212; [5]): 16 µg/mL and 30.4 µM
- MIC (E. coli ATCC 25922): ≥ 128 µg/mL
- MIC (S. aureus ATCC 12598; [6]): 32 µg/mL and 60.9 µM
- MIC (S. enterica ATCC 14028): ≥ 128 µg/mL and ≥ 244 µM
- MIC (P. aeruginosa ATCC 27853): ≥ 128 µg/mL and ≥ 244 µM
- MIC (S. aureus ATCC 29213; [7]): 128 µg/mL and 244 µM
- MIC (A. baumannii ATCC 17978): ≥ 128 µg/mL and ≥ 244 µM
- MIC [2]: ≥ 128 µg/mL and ≥ 244 µM
- MIC [3]: > 128 µg/mL and > 244 µM
- pIC50 [4, 8]: 6.64
- pIC50 [4, 9]: 6.74

SMILES: CN(C)c1ccc(/C=C/C=C/c2cccc[n+]2C)cc1 [GF I 25]
- pIC50 [1]: 5.00
- Log(IC50) 48h [1]: 1

SMILES: Cn1c(/C=C/c2ccncc2)ccc1/C=C/c1cc[n+](C)cc1 [GF I 30]
- pIC50 [1]: 4.30
- Log(IC50) 48h [1]: 1.70

SMILES: Cn1c(/C=C/C2=C(C#N)C(=C(C#N)C#N)OC2(C)C)ccc1/C=C/c1cc[n+](C)cc1 [GF I 32]
- pIC50 [1]: 4.49
- Log(IC50) 48h [1]: 1.51

SMILES: CC(=O)NC[C@H]1CN(c2ccc(N3CCOCC3)c(F)c2)C(=O)O1 [Linezolid, linezolid, reference compound]
- MIC (E. faecalis ATCC 29212; [5]): 4 µg/mL (≈ 11.9 µM)
- MIC (S. aureus ATCC 12598; [6]): 4 µg/mL (≈ 11.9 µM)
- MIC reduction in combination with PB4 (all tested strains): no significant MIC reductions
- MIC (S. aureus ATCC 29213; [7]): 4 µg/mL (≈ 11.9 µM)
- MIC [3]: 2 µg/mL (≈ 5.93 µM)

SMILES: CCCCN(CCCC)c1ccc(-c2ccc(/C=C/c3ccc4ccccc4[n+]3C)s2)s1 [PB2]
- MIC (S. aureus ATCC29213): 4 µg/mL

SMILES: CN(C)c1ccc(/C=C/c2cccc(/C=C/c3ccc(N(C)C)cc3)[n+]2C)cc1 [PB4]
- Reduction of PB4 MIC in combination with GC-VI-70 (E. faecalis ATCC 29212; E. faecalis ATCC 29212): 2 logs
- MIC of PB4 + GC-VI-70 combination (E. faecalis ATCC 29212; E. faecalis ATCC 29212, PB4 fixed at its MIC for the strain, GC-VI-70 128 to 0.125 mg/L): 0.06 µg/mL
- MIC (E. faecalis ATCC 29212; [5]): 0.5 µg/mL and 0.98 µM
- MIC (E. coli ATCC 25922): 2 µg/mL and 3.91 µM
- Reduction of PB4 MIC in combination with GC-VI-70 (S. aureus ATCC 12598; S. aureus ATCC 12598): 2 logs
- MIC of PB4 + GC-VI-70 combination (S. aureus ATCC 12598; S. aureus ATCC 12598, PB4 fixed at its MIC for the strain, GC-VI-70 128 to 0.125 mg/L): 0.06 µg/mL
- MIC (S. aureus ATCC 12598; [6]): 0.25 µg/mL and 0.49 µM
- MIC (S. enterica ATCC 14028): 64 µg/mL and 125 µM
- MIC (P. aeruginosa ATCC 27853): > 128 µg/mL and > 250 µM
- MIC (S. aureus ATCC 29213; [7]): 0.125 µg/mL and 0.24 µM
- MIC (S. aureus ATCC29213): 0.25 µg/mL
- MIC (A. baumannii ATCC 17978): ≤ 0.125 µg/mL and ≤ 0.24 µM
- MIC [2]: 64 µg/mL and 125 µM
- MIC [3]: ≤ 0.125 µg/mL and ≤ 0.24 µM
- Percentage of cell growth, PB4 0.2 µM ([4]; CaCo-2, PB4 alone 0.2 µM, 48 h): 72.7%
- pIC50 [4, 8]: 6.51
- pIC50 [4, 9]: 6.52

SMILES: C[n+]1ccc(/C=C/c2ccc(-c3cc(Cl)ccc3Cl)o2)cc1 [PB6]
- MIC (S. aureus ATCC29213): 4 µg/mL

SMILES: CC[n+]1ccc2c(c1)CCC/C2=C\c1ccc(-c2ccc(Cl)cc2)o1 [PB7]
- MIC (S. aureus ATCC29213): 4 µg/mL

SMILES: CCCCN(CCCC)c1ccc(-c2ccc(/C=C3\CCCc4c[n+](CC)ccc43)s2)s1 [PB8]
- MIC (S. aureus ATCC29213): 2 µg/mL

SMILES: CO[C@H]1/C=C/O[C@@]2(C)Oc3c(C)c(O)c4c(O)c(c(/C=N/N5CCN(C)CC5)c(O)c4c3C2=O)NC(=O)/C(C)=C\C=C\[C@H](C)[C@H](O)[C@@H](C)[C@@H](O)[C@@H](C)[C@H](OC(C)=O)[C@@H]1C [Rifampin, rifampin, reference compound]
- MIC of antibiotic in combination with PB4 (E. faecalis ATCC 29212; E. faecalis ATCC 29212, PB4 at fixed 0.125 μg/mL (0.24 μM), a quarter of an MIC value): 0.006 µg/mL
- Reduction of antibiotic MIC by PB4 (E. faecalis ATCC 29212; E. faecalis ATCC 29212, antibiotic + PB4 vs antibiotic alone): 2 -fold log reduction
- MIC (E. faecalis ATCC 29212; ATCC29212): 0.125 µg/mL (≈ 0.152 µM)
- MIC (E. faecalis ATCC 29212; [5]): 0.25 µg/mL (≈ 0.304 µM)
- MIC (S. aureus ATCC 12598; ATCC12598): 0.125 µg/mL (≈ 0.152 µM)
- MIC (S. aureus ATCC 29213; ATCC29213): 0.125 µg/mL (≈ 0.152 µM)
- Reduction of antibiotic MIC by PB4 ([3]; S. aureus USA 300, antibiotic + PB4 vs antibiotic alone): 4 -fold log reduction
- MIC [3]: 0.125 µg/mL (≈ 0.152 µM)
- Percentage of cell growth, antibiotic ([4]; CaCo-2, antibiotic alone at MIC for E. faecalis ATCC 29212, 24 h): 133.7%
- Percentage of cell growth, antibiotic ([4]; CaCo-2, antibiotic alone at MIC for E. faecalis ATCC 29212, 48 h): 282.6%
- Percentage of cell growth, antibiotic ([4]; CaCo-2, antibiotic alone at sub-MIC (half-MIC), 24 h): 146.6%
- Percentage of cell growth, antibiotic ([4]; CaCo-2, antibiotic alone at sub-MIC (half-MIC), 48 h): 265.6%
- Percentage of cell growth, antibiotic + PB4 0.2 µM ([4]; CaCo-2, antibiotic at MIC + PB4 0.2 µM, 24 h): 126.9%
- Percentage of cell growth, antibiotic + PB4 0.2 µM ([4]; CaCo-2, antibiotic at MIC + PB4 0.2 µM, 48 h): 158.9%
- Percentage of cell growth, antibiotic + PB4 0.2 µM ([4]; CaCo-2, antibiotic at sub-MIC + PB4 0.2 µM, 24 h): 130.6%
- Percentage of cell growth, antibiotic + PB4 0.2 µM ([4]; CaCo-2, antibiotic at sub-MIC + PB4 0.2 µM, 48 h): 163.7%

SMILES: CCn1cc(/C=C/c2sc3ccccc3[n+]2CC)c2ccccc21 [SBT, reference compound]
- MIC (S. aureus ATCC29213): 1 µg/mL

SMILES: CCn1cc(/C=C/c2ccc3ccccc3[n+]2CC)c2ccccc21 [SQL, reference compound]
- MIC (S. aureus ATCC29213): 4 µg/mL
